Results as given in ChEMBL document CHEMBL1201862, “PubChem BioAssay data set” (2004).
The source made the active and inactive calls. Cut-off read from the data, not from the text of the source: actives have a measured IC50 and inactives only a lower limit.

Target: Envelope glycoprotein gp160 (Human immunodeficiency virus 1, UniProt Q6QLK5)
Experiment: inhibitors of HIV fusion peptide binding, primary screen, biochemical, uHTS, fluorescence dequenching (AID 1986)

Sequence of Envelope glycoprotein gp160 (Q6QLK5 whole entry, the tested form may be a part): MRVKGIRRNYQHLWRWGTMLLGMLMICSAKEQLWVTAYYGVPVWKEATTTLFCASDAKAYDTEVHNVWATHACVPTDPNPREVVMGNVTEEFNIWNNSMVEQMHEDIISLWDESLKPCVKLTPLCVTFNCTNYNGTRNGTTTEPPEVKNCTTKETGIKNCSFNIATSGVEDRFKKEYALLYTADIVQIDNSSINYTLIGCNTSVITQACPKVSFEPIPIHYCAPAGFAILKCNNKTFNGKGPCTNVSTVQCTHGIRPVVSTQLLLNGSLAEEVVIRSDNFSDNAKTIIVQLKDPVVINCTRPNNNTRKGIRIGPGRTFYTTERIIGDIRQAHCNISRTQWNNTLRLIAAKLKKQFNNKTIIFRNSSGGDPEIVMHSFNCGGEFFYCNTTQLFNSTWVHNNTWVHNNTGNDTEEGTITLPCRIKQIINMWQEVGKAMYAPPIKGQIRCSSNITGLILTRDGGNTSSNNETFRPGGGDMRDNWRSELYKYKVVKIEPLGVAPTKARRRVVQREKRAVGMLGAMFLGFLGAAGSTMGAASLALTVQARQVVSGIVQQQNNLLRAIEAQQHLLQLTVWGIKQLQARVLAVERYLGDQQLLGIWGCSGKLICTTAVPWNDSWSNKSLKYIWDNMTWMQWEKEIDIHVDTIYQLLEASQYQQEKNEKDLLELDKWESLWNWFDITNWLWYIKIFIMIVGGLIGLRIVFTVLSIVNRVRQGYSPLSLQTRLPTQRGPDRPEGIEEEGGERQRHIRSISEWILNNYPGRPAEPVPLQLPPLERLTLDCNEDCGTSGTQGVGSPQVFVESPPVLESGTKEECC

In the case of `CCOc1cc(/C=C2/C(=N)N3C(=NC2=O)SN=C3S(=O)(=O)CC)ccc1OC(=O)c1ccco1`, the IC50 is reported as 19.3 µM (active).
